Molecular target: T1, human capsaicin receptor (Homo sapiens, UniProt Q8NER1)
T1 construct: pBK-CMV expression construct encoding the full length human capsaicin receptor; expressed in transfected cells
Test: Calcium mobilization assay, determination of antagonist activity (Example 6)
Assay type: cell-based
Details: Table II
Summary of the method: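 Antagonism measured as inhibition of capsaicin-evoked (final concentration = EC50, from an 8-point 1 nM–3 μM curve) Fluo-3 calcium signal in stable hVR1-HEK293 cells. Test compounds at 1–5 μM final, 0.5–6 h dark preincubation at room temperature. IC50 = concentration giving 50% reduction versus agonist-only response.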

[1] = IC50 determined as described in Example 6 (antagonist activity, calcium mobilization)
[2] = determined as described in Example 6 (calcium mobilization, antagonist activity)
[3] = determined as described in Example 6 (antagonist activity), "*" = 1 micromolar or less

T1 sequence (Q8NER1 whole entry): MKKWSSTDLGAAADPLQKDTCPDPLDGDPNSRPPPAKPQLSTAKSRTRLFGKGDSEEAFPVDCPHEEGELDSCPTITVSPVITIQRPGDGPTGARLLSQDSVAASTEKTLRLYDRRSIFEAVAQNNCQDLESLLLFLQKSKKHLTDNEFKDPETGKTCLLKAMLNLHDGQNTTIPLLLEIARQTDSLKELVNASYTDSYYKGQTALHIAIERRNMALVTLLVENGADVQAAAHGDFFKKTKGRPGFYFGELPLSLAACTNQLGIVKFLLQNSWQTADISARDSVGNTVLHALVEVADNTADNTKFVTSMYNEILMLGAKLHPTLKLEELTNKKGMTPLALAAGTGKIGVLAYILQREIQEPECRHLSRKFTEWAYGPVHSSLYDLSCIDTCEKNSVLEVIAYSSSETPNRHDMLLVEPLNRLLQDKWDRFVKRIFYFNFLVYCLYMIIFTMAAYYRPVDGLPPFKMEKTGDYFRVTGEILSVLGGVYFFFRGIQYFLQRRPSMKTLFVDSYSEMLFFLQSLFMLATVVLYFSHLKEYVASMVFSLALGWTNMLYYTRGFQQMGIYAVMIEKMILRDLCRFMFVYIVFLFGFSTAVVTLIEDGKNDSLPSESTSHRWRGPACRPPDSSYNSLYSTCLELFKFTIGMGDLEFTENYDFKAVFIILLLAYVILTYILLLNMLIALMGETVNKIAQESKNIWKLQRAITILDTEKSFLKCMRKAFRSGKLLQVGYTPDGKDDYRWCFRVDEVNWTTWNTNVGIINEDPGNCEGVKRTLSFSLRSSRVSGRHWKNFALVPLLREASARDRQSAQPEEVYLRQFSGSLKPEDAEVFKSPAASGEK

| IC50 [2] | IC50 [3] | SMILES | also measured |
| --- | --- | --- | --- |
| – | ≤ 1000 nM | CCOC(=O)c1ccc(-c2cc(N3CCN(c4ncccc4Cl)C[C@H]3C)nc(N3CCCC3C)n2)cc1 (stereo in doubt) [Example 867, ethyl 4-[6-[4-(3-chloropyridin-2-yl)-2-methylpiperazin-1-yl]-2-(2-methylpyrrolidin-1-yl)pyrimidin-4-yl]benzoate] | – |
| – | ≤ 1000 nM | C[C@@H]1CN(c2nccnc2Cl)CCN1c1cc(-c2ccc(F)c(F)c2)nc(N2CCC[C@H]2C)n1 [Example 935, 4-[(2R)-4-(3-chloropyrazin-2-yl)-2-methylpiperazin-1-yl]-6-(3,4-difluorophenyl)-2-[(2R)-2-methylpyrrolidin-1-yl]pyrimidine] | – |
| – | ≤ 1000 nM | C[C@@H]1CN(c2ncccc2C(F)(F)F)CCN1c1cc(-c2ccc(F)c(F)c2)nc(N2CCC[C@H]2C)n1 [Example 936, 4-(3,4-difluorophenyl)-2-[(2R)-2-methylpyrrolidin-1-yl]-6-{(2R)-2-methyl-4-[3-(trifluoromethyl)pyridin-2-yl]piperazin-1-yl}pyrimidine] | – |
| ≤ 1000 nM | – | CC1CCCN1c1nc(-c2ccc(F)cc2)cc(N2CCN(c3ncccc3F)CC2)n1 (stereo not drawn) [Example 749, 4-(4-fluorophenyl)-6-[4-(3-fluoropyridin-2-yl)piperazin-1-yl]-2-(2-methylpyrrolidin-1-yl)pyrimidine] | – |

More lines, now with the values behind:

| SMILES | IC50 [2] | IC50 [3] | also measured |
| --- | --- | --- | --- |
| Cc1ccc(-c2cc(N3CCN(c4ncccc4Cl)C[C@H]3C)nc(N3CCC[C@@H]3C)n2)cc1Cl [Example 999, 4-(3-ohloro-4-methylphenyl)-6-[(2R)-4-(3-chloropyridin-2-yl)-2-methylpiperazin-1-yl]-2-[(2S)-2-methylpyrrolidin-1-yl]pyrimidine] | – | – | IC50 [1]: ≤ 1000 nM |
| CS(=O)(=O)C1CCN(c2nc(-c3ccc(F)c(Cl)c3)cc(N3CCN(c4ncccc4C(F)(F)F)CC3)n2)CC1 [Example 655, 4-(3-chloro-4-fluorophenyl)-2-[4-(methylsulfonyl)piperidin-1-yl]-6-{4-[3-(trifluoromethyl)pyridin-2-yl]piperazin-1-yl}pyrimidine] | ≤ 1000 nM | – | – |
| CCCN1CC=C(c2nc(-c3ccc(F)c(Cl)c3)cc(N3CCN(c4ncccc4C(F)(F)F)CC3)n2)CC1 [Example 863, 4-(3-chloro-4-fluorophenyl)-2-(1-propyl-1,2,3,6-tetrahydropyridin-4-yl)-6-{4-[3-(trifluoromethyl)pyridin-2-yl]piperazin-1-yl}pyrimidine] | – | ≤ 1000 nM | – |
| CS(=O)(=O)Nc1cccnc1N1CCN(c2cc(-c3ccc(F)c(Cl)c3)nc(N3CCOCC3)n2)CC1 [Example 588, N-(2-{4-[6-(3-chloro-4-fluorophenyl)-2-morpholin-4-ylpyrimidin-4-yl]piperazin-1-yl}pyridin-3-yl)methanesulfonamide] | ≤ 1000 nM | – | – |
| O=C1CCC(=O)N1c1nc(-c2ccc(F)c(Cl)c2)cc(N2CCN(c3ncccc3C(F)(F)F)CC2)n1 [Example 680, 1-(4-(3-chloro-4-fluorophenyl)-6-{4-[3-(trifluoromethyl)pyridin-2-yl]piperazin-1-yl}pyrimidin-2-yl)pyrrolidine-2,5-dione] | ≤ 1000 nM | – | – |
| CC1CCCN1c1nc(-c2ccc(F)c(Cl)c2)cc(N2CCN(c3ncccn3)CC2)n1 (stereo not drawn) [Example 996, 4-(3-chloro-4-fluorophenyl)-2-(2-methylpyrrolidin-1-yl)-6-(4-pyrimidin-2-ylpiperazin-1-yl)pyrimidine] | – | – | IC50 [1]: ≤ 1000 nM |
| C[C@H]1CN(c2nccnc2Cl)CCN1c1cc(-c2ccc(Cl)c(F)c2)nc(N2CCOCC2)n1 [Example 962, 4-{4-(4-chloro-3-fluorophenyl)-6-[(2S)-4-(3-chloropyrazin-2-yl)-2-methylpiperazin-1-yl]pyrimidin-2-yl}morpholine] | – | ≤ 1000 nM | – |
| CCC(CC)Oc1nc(-c2ccc(F)c(Cl)c2)cc(N2CCN(c3ncccc3C(F)(F)F)CC2)n1 [Example 658, 4-(3-chloro-4-fluorophenyl)-2-(1-ethylpropoxy)-6-{4-[3-(trifluoromethyl)pyridin-2-yl]piperazin-1-yl}pyrimidine] | ≤ 1000 nM | – | – |
